Assay results as given in patent US20070025902A1, “RECOVERY OF FLUORINATED CARBOXYLIC ACID FROM ADSORBENT PARTICLES” (priority 2005, published 2007).
Marks after values point to notes of the source that are not given here.

Assay: Determination of bio-accumulation: urinary clearance pharmacokinetic study in rats
Conditions: oral gavage; for Compound-related Effects: clinical signs of toxicity and gross necropsy 96 hours post-dose
[1] = parent compound recovered in urine after 96 h, 73 micro Moles per kg body weight
[2] = renal elimination half-life of parent compound from urine, 73 micro Moles per kg body weight, exponential least squares curve fitting
[3] = 73 micro Moles per kg body weight
[4] = no parent compound in urine, based on elimination of the major metabolite C3F7—O—CHFCOO−, 73 micro Moles per kg

SMILES	% Recovery (96 h) [1] [%]	T½ [2] [h]	% Recovery (96 h) [4]	T½ (h) [4]	Compound-related Effects [3]	T½ (h) [2]
N.O=C(O)C(F)(F)OC(F)(F)C(F)(F)C(F)(F)OC(F)(F)F [Compound 1, CF3—O—(CF2)3—O—CF2—COONH4]	73					
N.O=C(O)C(F)(F)OC(F)(F)OC(F)(F)F [Compound 2, CF3—OCF2—O—CF2—COONH4]	96	12				
N.O=C(O)C(F)(F)OC(F)(F)OC(F)(F)OC(F)(F)F [Compound 3, CF3—OCF2—OCF2—OCF2—COONH4]	100	12				
N.O=C(O)C(F)(F)OC(F)(F)C(F)(F)C(F)(F)OC(F)(F)F [Compound 4, CF3—(OCF2)3—OCF2—COONH4]	50					
N.O=C(O)C(F)(F)OC(F)(F)C(F)(F)C(F)(F)F [Compound 5, C3F7—O—CF2—COONH4]	97	11				
N.O=C(O)C(F)(F)C(F)(F)OC(F)(F)F [Compound 6, CF3—O—CF2—CF2—COONH4]	100	11				
N.O=C(O)C(F)(F)C(F)(F)OC(F)(F)C(F)(F)F [Compound 7, C2F5—O—CF2—CF2—COONH4]	100	10				
N.O=C(O)C(F)(F)C(F)(F)OC(F)(F)C(F)(F)C(F)(F)F [Compound 8, C3F7—O—CF2—CF2—COONH4]	82	12				
N.O=C(O)C(F)(F)C(F)(F)OC(F)(F)C(F)(F)C(F)(F)C(F)(F)F [Compound 9, C4F9—O—CF2—CF2—COONH4]	42	31			Hepatomegaly	
N.O=C(O)C(F)(F)OC(F)(F)C(F)(F)OC(F)(F)C(F)(F)F [Compound 10, C2F5—O—CF2—CF2—O—CF2—COONH4]	99	10				
N.O=C(O)C(F)(F)C(F)(F)C(F)(F)C(F)(F)C(F)(F)C(F)(F)C(F)(F)F [Compound C-1, C7F15COONH4, reference compound]	6				Hepatomegaly	˜550 h

Further lines, with some results ahead:

% Recovery (96 h) [1] [%]	T½ [2] [h]	% Recovery (96 h) [4]	T½ (h) [4]	SMILES	Compound-related Effects [3]	T½ (h) [2]
84	12			N.O=C(O)C(F)(F)C(F)OC(F)(F)C(F)(F)C(F)(F)OC(F)(F)F (centres unmarked) [Compound 11, CF3—O—CF2—CF2—CF2—O—CHF—CF2—COONH4]		
95	11			N.O=C(O)C(F)OC(F)(F)C(F)(F)C(F)(F)OC(F)(F)F (centres unmarked) [Compound 12, CF3—O—CF2—CF2—CF2—O—CHF—COONH4]		
94	11			N.O=C(O)C(F)(F)C(F)OC(F)(F)C(F)(F)C(F)(F)F (centres unmarked) [Compound 13, C3F7—O—CFH—CF2COONH4]		
32	24			N.O=C(O)C(F)(F)C(F)(F)C(F)(F)C(F)(F)C(F)(F)OC(F)C(F)(F)F (centres unmarked) [Compound 14, CF3—CFH—O—(CF2)5—COONH4]	Hepatomegaly	
95	8			N.O=C(O)C(F)(F)C(F)(F)C(F)(F)OC(F)C(F)(F)F (centres unmarked) [Compound 15, CF3—CFH—O—(CF2)3—COONH4]		
		65* %	13* h	N.O=C(O)COC(F)(F)C(F)OC(F)(F)C(F)(F)C(F)(F)F (centres unmarked) [Compound 16, C3F7—O—CFH—CF2—O—CH2—COONH4]		
5	95			N.O=C(O)C(F)(F)OC(F)(F)C(F)(OC(F)(F)C(F)(F)C(F)(F)F)C(F)(F)F (centres unmarked) [Compound C-3, CF3CF2CF2OCF(CF3)CF2OCF2COONH4, reference compound]	Hepatomegaly	
